Patent US20110207723A1, “NOVEL FUSED AMINODIHYDROTHIAZINE DERIVATIVE” (EISAI R&D MANAGEMENT CO., LTD., priority 2008, published 2011)
pIC50: −log10 of the molar value.

Test system: Aβ42 production
Experiment: Quantification of Aβ peptide in culture of neurons from rat fetus brain (Aβ42 ELISA)
Assay type: cell-based
Conditions: Neuron, 72 h, rat primary neuronal culture (embryonic day 18 Wistar rat cerebral cortex), medium collected three days after addition of compound, read-out: Aβ42 production reducing effect IC50
Method: Quantification of Aβ Peptide in Culture of Neurons from Rat Fetus Brain
Primary neuronal cultures were prepared from the cerebral cortex of embryonic day 18 Wistar rats (Charles River Japan, Yokohama, Japan). Specifically, the embryos were aseptically removed from pregnant rats under ether anesthesia. The brain was isolated from the embryo and immersed in an ice-cold L-15 medium (such as Invitrogen Corp. Cat #11415-064, Carlsbad, Calif., USA, or SIGMA L1518). The cerebral cortex was collected from the isolated brain under a stereoscopic microscope. The cerebral cortex fragments collected were enzymatically treated in an enzyme solution containing 0.25% trypsin (Invitrogen Corp. Cat #15050-065, Carlsbad, Calif., USA) and 0.01% DNase (Sigma D5025, St. Louis, Mo., USA) at 37° C. for 30 minutes to disperse the cells. Here, the enzymatic reaction was stopped by adding inactivated horse serum to the solution. The enzymatically treated solution was centrifuged at 1,500 rpm for five minutes to remove the supernatant. 5 to 10 ml of a medium was added to the resulting cell mass. Neurobasal medium (Invitrogen Corp. Cat #21103-049, Carlsbad, Calif., USA) supplemented with 2% B27 supplement (Invitrogen Corp. Cat #17504-044, Carlsbad, Calif., USA), 25 μM 2-mercaptoethanol (2-ME, WAKO Cat #139-06861, Osaka, Japan), 0.5 mM L-glutamine (Invitrogen Corp. Cat #25030-081, Carlsbad, Calif., USA), and Antibiotics-Antimycotics (Invitrogen Corp. Cat #15240-062, Carlsbad, Calif., USA) was used as the medium (Neurobasal/B27/2-ME). However, the above Neurobasal medium not supplemented with 2-ME (Neurobasal/B27) was used for the assay. The cells were redispersed by mild pipetting of the cell mass to which the medium was added. The cell dispersion was filtered through a 40-μm nylon mesh (Cell Strainer, Cat #35-2340, Becton Dickinson Labware, Franklin Lakes, N.J., USA) to remove the remaining cell mass, and thus a neuronal cell suspension was obtained. The neuronal cell suspension was diluted with the medium and then plated in a volume of 100 μl/well at an initial cell density of 5×10^5 cells/cm^2 in a 96-well polystyrene culture plate pre-coated with poly-L or D-lysine (Falcon Cat #35-3075, Becton Dickinson Labware, Franklin Lakes, N.J., USA coated with poly-L-lysine using the method shown below, or BIOCOAT™ cell environments Poly-D-lysine cell ware 96-well plate, Cat #35-6461, Becton Dickinson Labware, Franklin Lakes, N.J., USA). Poly-L-lysine coating was carried out as follows. 100 μg/ml of a poly-L-lysine (SIGMA P2636, St. Louis, Mo., USA) solution was aseptically prepared with a 0.15 M borate buffer (pH 8.5). […] of the solution was added to the 96-well polystyrene culture plate and incubated at room temperature for one or more hours or at 4° C. overnight or longer. Thereafter, the coated 96-well polystyrene culture plate was washed with sterile water four or more times, and then dried or rinsed with, for example, sterile PBS or medium, and used for cell plating. The plated cells were cultured in the culture plate at 37° C. in 5% CO2-95% air for one day. Then, the total amount of the medium was replaced with a fresh Neurobasal/B27/2-ME medium, and then the cells were cultured for further three days.
The drug was added to the culture plate on Day 4 of culture as follows. The total amount of the medium was removed from the wells, and 180 μl/well of Neurobasal medium not containing 2-ME and containing 2% B-27 (Neurobasal/B27) was added thereto. A solution of the test compound in dimethyl sulfoxide (hereinafter abbreviated as DMSO) was diluted with Neurobasal/B27 to a concentration 10-fold higher than the final concentration. 20 μl/well of the dilution was added to and sufficiently mixed with the medium. The final DMSO concentration was 1% or less. Only DMSO was added to the control group.
The cells were cultured for three days after addition of the compound, and the total amount of the medium was collected. […]

| Compound | pIC50 |
| --- | --- |
| NC1=N[C@@]2(c3cc(-c4cccnc4F)cs3)COCC[C@H]2CS1 (racemic) [Example 65, (±)-(4aR*,8aR*1-8a-[4-(2-fluoropyridin-3-yl)-thiophen-2-yl]-4,4a,5,6,8,8a-hexahydro-7-oxa-3-thia-1-azanaphthalen-2-ylamine] | 6.43 |
| NC1=N[C@@]2(c3cc(-c4cccnc4F)ccc3F)COCC[C@H]2CS1 (racemic) [Example 61, (±)-(4aR*,8aS*)-8a-[2-fluoro-5-(2-fluoropyridin-3-yl)phenyl]-4,4a,5,6,8,8a-hexahydro-7-oxa-3-thia-1-azanaphthalen-2-ylamine] | 6.50 |
| NC1=N[C@@]2(c3cc(NC(=O)c4cnc(OCF)cn4)ccc3F)CO[C@@H](C(F)(F)F)C[C@H]2CS1 (relative stereo) [Example 39, N-[3-((4aR*,6R*,8aS*)-2-amino-6-trifluoromethyl-4,4a,5,6-tetrahydro-7-oxa-3-thia-1-azanaphthalen-8a-yl)-4-fluorophenyl]-5-fluoromethoxypyrazine-2-carboxamide] | 9.00 |
| NC1=N[C@@]2(c3cc(NC(=O)c4ccc(OC(F)F)cn4)ccc3F)COCC[C@H]2CS1 (single isomer, unassigned) [Example 58, N-[3-((4aR*,8aS*)-2-amino-4,4a,5,6-tetrahydro-7-oxa-3-thia-1-azanaphthalen-8a-yl)-4-fluorophenyl]-5-difluoromethoxypyridine-2-carboxamide] | 8.40 |
| N#Cc1ccc(C(=O)Nc2csc(C34COCCC3CSC(N)=N4)c2)nc1 (stereo in doubt) [Example 64, N-[5-((4aR*,8aS*)-2-amino-4,4a,5,6-tetrahydro-7-oxa-3-thia-1-azanaphthalen-8a-yl)thiophen-3-yl]-5-cyanopyridine-2-carboxamide] | 7.85 |
| N#Cc1ccc(C(=O)Nc2ccc(F)c([C@]34CO[C@@H](C(F)(F)F)C[C@H]3CSC(N)=N4)c2)nc1 (relative stereo) [Example 35, N-[3-((4aR*,6R*,8aS*)-2-amino-6-trifluoromethyl-4,4a,5,6-tetrahydro-7-oxa-3-thia-1-azanaphthalen-8a-yl)-4-fluorophenyl]-5-cyanopyridine-2-carboxamide] | 8.68 |
| C[C@H]1C[C@H]2CSC(N)=N[C@@]2(c2cc(NC(=O)c3ccc(C#N)cn3)ccc2F)CO1 (relative stereo) [Example 7, N-[3-((4aR*,6S*,8aS*)-2-amino-6-methyl-4,4a,5,6-tetrahydro-7-oxa-3-thia-1-azanaphthalen-8a-yl)-4-fluorophenyl]-5-cyanopyridine-2-carboxamide] | 9.15 |
| N#Cc1ccc(C(=O)Nc2ccc(F)c([C@]34CO[C@@H](CF)C[C@H]3CSC(N)=N4)c2)nc1 [Example 44, N-[3-((4aR,6R,8aS)-2-amino-6-fluoromethyl-4,4a,5,6-tetrahydro-7-oxa-3-thia-1-azanaphthalen-8a-yl)-4-fluorophenyl]-5-cyanopyridine-2-carboxamide] | 9.15 |
| NC1=N[C@@]2(c3cc(NC(=O)c4ccc(C(F)(F)F)cn4)ccc3F)COC[C@@H](F)[C@H]2CS1 [Example 19, N-[3-((4aS,5S,8aS)-2-amino-5-fluoro-4,4a,5,6-tetrahydro-7-oxa-3-thia-1-azanaphthalen-8a-yl)-4-fluorophenyl]-5-trifluoromethylpyridine-2-carboxamide] | 8.70 |
| NC1=N[C@@]2(c3cc(NC(=O)c4ccc(F)cn4)ccc3F)COCC[C@H]2CS1 (single isomer, unassigned) [Example 53, N-[3-((4aR*,8aS*)-2-amino-4,4a,5,6-tetrahydro-7-oxa-3-thia-1-azanaphthalen-8a-yl)-4-fluorophenyl]-5-fluoropyridine-2-carboxamide] | 8.25 |
| C[C@@H]1COC[C@]2(c3cc(NC(=O)c4ccc(Cl)cn4)ccc3F)N=C(N)SC[C@H]12 (relative stereo) [Example 23, N-[3-((4aR*,5S*,8aS*)-2-amino-5-methyl-4,4a,5,6-tetrahydro-7-oxa-3-thia-1-azanaphthalen-8a-yl)-4-fluorophenyl]-5-chloropyridine-2-carboxamide] | 7.92 |
| C[C@H]1C[C@H]2CSC(N)=N[C@@]2(c2cc(NC(=O)c3cnc(OCF)cn3)ccc2F)CO1 (relative stereo) [Example 10, N-[3-((4aR*,6S*,8aS*)-2-amino-6-methyl-4,4a,5,6-tetrahydro-7-oxa-3-thia-1-azanaphthalen-8a-yl)-4-fluorophenyl]-5-fluoromethoxypyrazine-2-carboxamide] | 9.00 |
| NC1=N[C@@]2(c3cc(NC(=O)c4cnc(C(F)F)cn4)ccc3F)CO[C@@H](C(F)(F)F)C[C@H]2CS1 (relative stereo) [Example 43, N-[3-((4aR*,6R*,8aS*)-2-amino-6-trifluoromethyl-4,4a,5,6-tetrahydro-7-oxa-3-thia-1-azanaphthalen-8a-yl)-4-fluorophenyl]-5-difluoromethylpyrazine-2-carboxamide] | 8.77 |
| NC1=N[C@@]2(c3cc(NC(=O)c4ccc(C(F)(F)F)cn4)ccc3F)CO[C@@H](CF)C[C@H]2CS1 [Example 46, N-[3-((4aR,6R,8aS)-2-amino-6-fluoromethyl-4,4a,5,6-tetrahydro-7-oxa-3-thia-1-azanaphthalen-8a-yl)-4-fluorophenyl]-5-trifluoromethylpyridine-2-carboxamide] | 9.00 |
| N#Cc1ccc(C(=O)Nc2ccc(OC(F)(F)F)c([C@]34COCC[C@H]3CSC(N)=N4)c2)nc1 (single isomer, unassigned) [Example 4, N-[3-((4aR*,8aS*)-2-amino-4,4,5,6-tetrahydro-7-oxa-3-thia-1-azanaphthalen-8a-yl)-4-trifluoromethoxyphenyl]-5-cyanopyridine-2-carboxamide] | 7.96 |
| NC1=N[C@@]2(c3cc(NC(=O)c4ccc(OC(F)F)cn4)ccc3F)CO[C@@H](C(F)(F)F)C[C@H]2CS1 (relative stereo) [Example 42, N-[3-((4aR*,6R*,8aS*)-2-amino-6-trifluoromethyl-4,4a,5,6-tetrahydro-7-oxa-3-thia-1-azanaphthalen-8a-yl)-4-fluorophenyl]-5-difluoromethoxypyridine-2-carboxamide] | 9.05 |
| C[C@@H]1COC[C@]2(c3cc(NC(=O)c4cnc(OC(F)F)cn4)ccc3F)N=C(N)SC[C@H]12 (relative stereo) [Example 25, N-[3-((4aR*,5S*,8aS*)-2-amino-5-methyl-4,4a,5,6-tetrahydro-7-oxa-3-thia-1-azanaphthalen-8a-yl)-4-fluorophenyl]-5-difluoromethoxypyrazine-2-carboxamide] | 7.85 |
| NC1=N[C@@]2(c3cc(-c4cccnc4F)ccc3F)CO[C@@H](COCc3ccccc3)C[C@H]2CS1 [Example 66, (4aR,6R,8aS)-8a-[2-fluoro-5-(2-fluoropyridin-3-yl)phenyl]-6-benzyloxymethyl-4,4a,5,6,8,8a-hexahydro-7-oxa-3-thia-1-azanaphthalen-2-ylamine] | 6.58 |
| NC1=N[C@@]2(c3cc(NC(=O)c4ccc(Cl)cn4)ccc3F)COC[C@@H](F)[C@H]2CS1 [Example 18, N-[3-((4aS,5S,8aS)-2-amino-5-fluoro-4,4a,5,6-tetrahydro-7-oxa-3-thia-1-azanaphthalen-8a-yl)-4-fluorophenyl]-5-chloropyridine-2-carboxamide] | 8.15 |
